# Data as given in patent US8889707B2, “Treatment of addiction” (priority 2012, dated 2014).
# System: Male Sprague-Dawley rats trained for cocaine-CPP
# Assay: Cocaine-CPP memory retrieval test, PJ-34 infused before testing
# Format: in vivo, rat
# Conditions: intra-CeA infusion, p<0.01
smiles,measurement,setting,value
"CN(C)CC(=O)Nc1ccc2[nH]c(=O)c3ccccc3c2c1.Cl [PJ-34, N-(6-Oxo-5,6-dihydrophenanthridin-2-yl)-(N,N-dimethylamino)acetamide hydrochloride]",Preference for the cocaine compartment,"50 microM, 1.2 microl, tested 30 min after infusion, vs vehicle, FIG. 4A",abolished
same,Abolished preference for the cocaine compartment in post-conditioning test,test 24 hours later,persisted
same,Abolished preference for the cocaine compartment in post-conditioning test,test 7 days later,persisted
same,Abolished preference for the cocaine compartment in post-conditioning test,test 14 days later,persisted
